The text below walks through data of US20230365620A1, “CYCLIN-DEPENDENT KINASE INHIBITORS AND METHODS OF USE” (DANA-FARBER CANCER INSTITUTE, INC., priority 2018, published 2023).

One may read the pIC50 as the negative decadic logarithm of the IC50, by convention in mol/L. The inhibition is the percentage by which the read-out fell short of the control.

Test [1] has as its target T1, CDK8 (Homo sapiens, UniProt P49336). Put plainly: LANTHASCREEN Eu Kinase Binding Assay (competitive kinase binding, Tracer displacement). The arrangement: purchased INVITROGEN
Target sequence in this assay (P49336 whole entry): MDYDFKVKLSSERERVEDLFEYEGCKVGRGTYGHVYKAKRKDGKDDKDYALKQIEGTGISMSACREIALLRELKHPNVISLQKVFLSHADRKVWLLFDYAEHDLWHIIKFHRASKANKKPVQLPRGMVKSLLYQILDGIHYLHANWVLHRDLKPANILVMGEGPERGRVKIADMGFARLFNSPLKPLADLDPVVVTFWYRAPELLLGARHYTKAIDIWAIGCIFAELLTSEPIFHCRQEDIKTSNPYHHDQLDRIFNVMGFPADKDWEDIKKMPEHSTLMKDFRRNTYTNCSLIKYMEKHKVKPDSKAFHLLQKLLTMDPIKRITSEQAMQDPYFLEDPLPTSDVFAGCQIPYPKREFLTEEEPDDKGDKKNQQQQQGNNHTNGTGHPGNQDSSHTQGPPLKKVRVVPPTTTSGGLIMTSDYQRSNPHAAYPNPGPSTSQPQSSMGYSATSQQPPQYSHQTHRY
Target sequence in this assay (P24863 whole entry partner): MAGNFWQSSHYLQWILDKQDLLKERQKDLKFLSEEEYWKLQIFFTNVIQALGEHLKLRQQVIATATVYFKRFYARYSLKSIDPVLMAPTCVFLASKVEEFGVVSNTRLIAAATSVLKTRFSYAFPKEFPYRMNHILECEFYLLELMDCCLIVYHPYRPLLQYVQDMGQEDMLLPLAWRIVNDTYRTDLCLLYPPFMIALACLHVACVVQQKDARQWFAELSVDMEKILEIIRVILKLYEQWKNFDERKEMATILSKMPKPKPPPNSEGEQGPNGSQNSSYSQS
The following applies: displacing the Tracer from binding to the target kinase; read-out: Enzyme IC50. On the procedure:
The biological activities of the compounds of the present application can be assessed through a variety of methods known in the art. […] The changes in the signal produced by the reporting ligand when the compound is present relative when the compound is absent are recorded, which are calculated to provide the IC50 of the compound. Compounds of the present application were tested in a competitive kinase binding assay by using commercially available assay system. For example, LANTHASCREEN© Eu Kinase Binding Assay (INVITROGEN™) was used to measure the IC50 of the compounds of the present application in displacing the Tracer from binding to the target kinase, by following the assay protocol from INVITROGEN™.
In general terms: TR-FRET usually uses a lanthanide donor and a delayed reading to cut background.

Test [2] deals with phosphorylation of S727-STAT1, a known CDK8 substrate, in HepG2 cells. In words: Western blot of pS727-STAT1 in IFNγ-treated HepG2 cells. It counts as cell-based. Conditions: 18 h with IFNγ, Compound 33 at 0.5, 1 or 5 μM, DCA at 0.1 or 1 μM. On the procedure: FIG. 1 is a Western blot illustrating inhibition of phosphorylation of 5727-STAT1, a known CDK8 substrate, to form pS727-STAT1. pS727-STAT1 and total STAT1 were from HepG2 cells independently treated for 18 h with interferon gamma (IFNγ) and 0.5 μM, 1 μM, or 5 μM Compound 33, or with IFNγ and 0.1 μM or 1 μM dehydrocortistatin A (“DCA”).
For orientation: A western blot detects proteins with antibodies after separation by electrophoresis.

The next test concerns panel of 468 kinases. Put plainly: KINOMESCAN binding analysis, panel of 468 kinases. The following applies: 10 μM. Here is the method:
(§1) The KINOMESCAN® was performed with binding assays of Compound 33 against a panel of 468 kinases at a concentration of 10 μM.
(§2) To evaluate the kinase selectivity of compounds of the application, KINOMESCAN® binding analysis against a panel of 468 kinases at a concentration of 10 μM was conducted.

A further test deals with CDK19 (Homo sapiens, UniProt Q9BWU1). In words: KINOMESCAN binding analysis. Here is the method: as §1, §2
Sequence of CDK19 (Q9BWU1 whole entry): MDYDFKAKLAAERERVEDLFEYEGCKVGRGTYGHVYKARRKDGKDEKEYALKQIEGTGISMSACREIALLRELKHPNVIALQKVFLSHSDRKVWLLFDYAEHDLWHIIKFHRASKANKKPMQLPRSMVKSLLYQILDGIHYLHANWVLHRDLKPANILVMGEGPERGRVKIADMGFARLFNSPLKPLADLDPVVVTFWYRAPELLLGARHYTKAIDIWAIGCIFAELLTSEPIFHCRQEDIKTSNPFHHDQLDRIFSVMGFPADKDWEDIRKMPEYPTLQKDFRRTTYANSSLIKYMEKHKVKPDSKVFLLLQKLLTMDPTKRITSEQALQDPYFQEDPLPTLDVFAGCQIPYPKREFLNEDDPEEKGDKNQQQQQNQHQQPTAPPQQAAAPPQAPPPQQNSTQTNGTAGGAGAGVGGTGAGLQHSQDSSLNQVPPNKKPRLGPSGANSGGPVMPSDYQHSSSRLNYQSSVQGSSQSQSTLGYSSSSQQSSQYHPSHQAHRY
Test [3] deals with T1, CDK8. In words: KINOMESCAN binding analysis. On the procedure: as §1, §2
Target sequence in this assay (P49336 whole entry): as the sequence (P49336 whole entry) above
Test [4] has as its target T2, NEK1 (Homo sapiens, UniProt Q96PY6).
T2 sequence (Q96PY6 1-1258): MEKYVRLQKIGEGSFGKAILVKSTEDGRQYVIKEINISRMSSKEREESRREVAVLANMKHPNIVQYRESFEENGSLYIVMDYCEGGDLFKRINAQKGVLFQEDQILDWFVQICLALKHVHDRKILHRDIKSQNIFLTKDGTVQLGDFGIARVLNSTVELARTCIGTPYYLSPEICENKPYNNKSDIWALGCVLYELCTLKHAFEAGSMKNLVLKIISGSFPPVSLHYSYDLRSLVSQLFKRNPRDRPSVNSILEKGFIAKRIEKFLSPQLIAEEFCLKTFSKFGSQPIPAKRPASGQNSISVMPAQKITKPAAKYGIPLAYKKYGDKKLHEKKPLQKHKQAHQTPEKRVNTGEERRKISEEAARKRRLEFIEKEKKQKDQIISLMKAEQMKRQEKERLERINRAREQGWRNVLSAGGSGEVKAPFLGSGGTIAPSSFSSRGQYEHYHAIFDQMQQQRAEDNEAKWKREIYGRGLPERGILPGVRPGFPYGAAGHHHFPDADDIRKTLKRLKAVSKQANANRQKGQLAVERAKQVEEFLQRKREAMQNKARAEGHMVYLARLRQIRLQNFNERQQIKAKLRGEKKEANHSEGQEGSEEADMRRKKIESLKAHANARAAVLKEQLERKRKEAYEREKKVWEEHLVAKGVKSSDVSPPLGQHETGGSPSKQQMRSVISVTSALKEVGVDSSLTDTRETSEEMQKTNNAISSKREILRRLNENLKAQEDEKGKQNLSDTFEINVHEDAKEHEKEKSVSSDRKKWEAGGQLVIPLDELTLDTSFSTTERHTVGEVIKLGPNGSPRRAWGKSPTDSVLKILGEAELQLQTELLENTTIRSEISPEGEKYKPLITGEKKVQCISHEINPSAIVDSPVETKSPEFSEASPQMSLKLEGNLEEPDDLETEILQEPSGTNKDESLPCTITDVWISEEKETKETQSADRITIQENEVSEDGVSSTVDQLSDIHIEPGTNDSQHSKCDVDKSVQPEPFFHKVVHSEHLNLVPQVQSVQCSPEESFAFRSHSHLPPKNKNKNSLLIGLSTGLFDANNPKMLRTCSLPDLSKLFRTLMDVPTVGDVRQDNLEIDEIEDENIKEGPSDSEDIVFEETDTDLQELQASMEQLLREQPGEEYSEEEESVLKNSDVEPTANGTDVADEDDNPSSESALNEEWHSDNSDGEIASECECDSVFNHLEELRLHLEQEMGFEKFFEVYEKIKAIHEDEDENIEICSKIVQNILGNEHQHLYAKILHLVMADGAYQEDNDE
In words: KINOMESCAN binding analysis. On the procedure:
as §1, §2

For another test, the target named is PIKFYVE (Homo sapiens, UniProt Q9Y2I7). Put plainly: KINOMESCAN binding analysis. On the procedure:
as §1, §2

Test [5] has as its target T2, NEK1. Put plainly: Dose-response analysis of NEK1. It counts as biochemical.
In test [6] the target is T1, CDK8. In words: CDK8 IC50 stated for DCA. It counts as biochemical. Also noted: purchased INVITROGEN
Target sequence in this assay (P49336 whole entry): as the sequence (P49336 whole entry) above
Target sequence in this assay (P24863 whole entry partner): as the sequence (P24863 whole entry partner) above

pIC50: −log10 of the molar value. Some results are limits rather than exact numbers.

Sequence of PIKFYVE (Q9Y2I7 whole entry): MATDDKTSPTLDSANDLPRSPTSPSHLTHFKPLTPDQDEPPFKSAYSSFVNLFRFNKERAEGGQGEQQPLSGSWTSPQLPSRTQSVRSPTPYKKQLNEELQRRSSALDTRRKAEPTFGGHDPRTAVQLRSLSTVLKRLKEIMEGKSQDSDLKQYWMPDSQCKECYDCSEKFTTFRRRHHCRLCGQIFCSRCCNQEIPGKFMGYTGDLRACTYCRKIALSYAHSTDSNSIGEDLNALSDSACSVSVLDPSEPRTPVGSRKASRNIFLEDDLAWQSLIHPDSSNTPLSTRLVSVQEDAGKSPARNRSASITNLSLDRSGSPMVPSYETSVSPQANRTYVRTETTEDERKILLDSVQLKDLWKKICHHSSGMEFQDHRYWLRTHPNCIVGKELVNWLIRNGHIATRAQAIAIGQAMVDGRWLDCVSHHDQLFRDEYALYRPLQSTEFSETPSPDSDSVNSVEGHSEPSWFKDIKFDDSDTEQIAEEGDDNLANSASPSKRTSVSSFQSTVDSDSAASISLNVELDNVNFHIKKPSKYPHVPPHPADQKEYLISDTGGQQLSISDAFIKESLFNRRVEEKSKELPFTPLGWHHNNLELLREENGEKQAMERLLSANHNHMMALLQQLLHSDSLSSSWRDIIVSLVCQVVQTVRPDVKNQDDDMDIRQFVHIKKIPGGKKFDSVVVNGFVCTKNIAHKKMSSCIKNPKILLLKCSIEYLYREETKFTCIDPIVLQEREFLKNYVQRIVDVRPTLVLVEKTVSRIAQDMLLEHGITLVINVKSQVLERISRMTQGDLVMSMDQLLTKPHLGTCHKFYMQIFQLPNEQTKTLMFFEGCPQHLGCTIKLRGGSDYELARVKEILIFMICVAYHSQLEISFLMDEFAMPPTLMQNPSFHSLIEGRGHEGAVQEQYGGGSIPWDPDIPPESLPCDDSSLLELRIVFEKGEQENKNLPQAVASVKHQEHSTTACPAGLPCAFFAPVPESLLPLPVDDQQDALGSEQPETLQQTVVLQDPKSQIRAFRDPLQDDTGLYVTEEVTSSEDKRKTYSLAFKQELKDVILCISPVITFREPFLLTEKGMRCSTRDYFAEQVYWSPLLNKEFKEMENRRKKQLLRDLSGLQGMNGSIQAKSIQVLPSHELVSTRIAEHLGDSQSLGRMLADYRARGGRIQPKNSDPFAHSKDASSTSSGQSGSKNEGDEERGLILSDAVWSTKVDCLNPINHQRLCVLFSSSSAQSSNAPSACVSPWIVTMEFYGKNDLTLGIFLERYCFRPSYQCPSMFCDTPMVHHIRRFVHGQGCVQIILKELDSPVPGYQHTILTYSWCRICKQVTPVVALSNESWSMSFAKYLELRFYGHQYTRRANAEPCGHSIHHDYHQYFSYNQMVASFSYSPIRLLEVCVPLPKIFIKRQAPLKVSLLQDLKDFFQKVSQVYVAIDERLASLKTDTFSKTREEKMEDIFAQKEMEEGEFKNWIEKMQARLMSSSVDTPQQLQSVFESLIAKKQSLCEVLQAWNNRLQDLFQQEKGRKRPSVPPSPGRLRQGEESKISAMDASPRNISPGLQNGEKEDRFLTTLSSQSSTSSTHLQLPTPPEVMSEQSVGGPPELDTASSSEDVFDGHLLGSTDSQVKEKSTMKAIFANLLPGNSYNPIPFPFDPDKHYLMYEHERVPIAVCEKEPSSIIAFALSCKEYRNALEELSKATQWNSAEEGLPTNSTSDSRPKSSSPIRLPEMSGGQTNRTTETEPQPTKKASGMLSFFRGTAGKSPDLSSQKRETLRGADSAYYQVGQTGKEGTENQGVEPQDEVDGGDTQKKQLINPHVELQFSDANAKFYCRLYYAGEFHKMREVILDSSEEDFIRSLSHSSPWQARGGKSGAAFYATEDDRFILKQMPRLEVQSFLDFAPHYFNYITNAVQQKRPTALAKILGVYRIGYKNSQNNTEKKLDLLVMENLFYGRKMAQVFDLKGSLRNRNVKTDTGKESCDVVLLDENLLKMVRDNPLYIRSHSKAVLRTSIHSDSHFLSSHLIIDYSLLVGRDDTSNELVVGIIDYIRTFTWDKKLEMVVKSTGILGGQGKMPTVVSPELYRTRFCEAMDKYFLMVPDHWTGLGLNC

For the compound `C[C@]12CC[C@H](O)CC1=CC[C@@H]1[C@@H]2CC[C@]2(C)C(c3ccc4cnncc4c3)=CC[C@@H]12` [Compound 3], the pIC50 at CDK8 [1] is less than 5.22.

Take `C[C@]12CC[C@H](n3ccnn3)C[C@@H]1CC[C@@H]1[C@@H]2CC[C@]2(C)[C@@H](c3ccc4ccncc4c3)CC[C@@H]12` [Compound 39, 7-((3S,8R,9S,10S,13S,14S,17S)-10,13-dimethyl-3-(1H-1,2,3-triazol-1-yl)hexadecahydro-1H-cyclopenta[a]phenanthren-17-yl)isoquinoline]: the pIC50 at CDK8 [1] was more than 7.00.

Consider `C[C@]12CC[C@H](O)CC1=CC[C@@H]1[C@@H]2CC[C@]2(C)C(c3ccc4[nH]ncc4c3)=CC[C@@H]12` [Compound 6], for which the negative-log IC50 (pIC50) on CDK8 [1] is less than 5.22.

For `C[C@]12CC[C@H](O)CC1=CC[C@@H]1C2CC[C@]2(C)C(c3ccc4cnccc4c3)=CC[C@@H]12` (some centres unmarked) [Compound 48], the pIC50 at CDK8 [1] is less than 5.22.

In the case of `C[C@]12CC[C@H]3[C@@H](CC=C4C[C@@H](O)CC[C@@]43C)[C@@H]1CC[C@@H]2c1ccc2cn[nH]c2c1` [Compound 13], at CDK8 [1], the pIC50 is less than 5.22.

`C[C@]12CC[C@H]3[C@@H](CC=C4C[C@@H](O)CC[C@@]43C)[C@@H]1CC[C@@H]2c1ccc2ccncc2c1` [Compound 8a, (3S,8S,9S,10R,13S,14S,17S)-17-(isoquinolin-7-yl)-10,13-dimethyl-2,3,4,7,8,9,10,11,12,13,14,15,16,17-tetradecahydro-1H-cyclopenta[a]phenanthren-3-ol]: on CDK8 [1], the negative-log IC50 (pIC50) was more than 7.00.

For the compound `C[C@]12CC[C@H](N3CCOCC3)C[C@@H]1CC[C@@H]1[C@@H]2CC[C@]2(C)[C@@H](c3ccc4ccncc4c3)CC[C@@H]12` [Compound 34, 4-((3S,5S,8R,10S,13S,14S,17S)-17-(isoquinolin-7-yl)-10,13-dimethylhexadecahydro-1H-cyclopenta[a]phenanthren-3-yl)morpholine], the pIC50 at CDK8 [1] is 6.70 to 7.00.

Turning to `CN(C)[C@H]1CC[C@@]2(C)C(=CCC3[C@@H]4CC[C@H](c5ccc6ccncc6c5)[C@@]4(C)CC[C@@H]32)C1` (stereo in doubt) [Compound 33, (3S,8R,9S,10R,13S,14S)-17-(isoquinolin-7-yl)-N,N,10,13-tetramethyl-2,3,4,7,8,9,10,11,12,13,14,15,16,17-tetradecahydro-1H-cyclopenta[a]phenanthren-3-amine], the “inhibition of S727 phosphorylation of STAT1” value in [2] is “dose-dependent inhibition”. Moreover, the kinase selectivity result in the test with panel of 468 kinases was “highly selective for CDK8 and CDK19”. Also, the “number of interactions greater than 90% inhibition” value with panel of 468 kinases came to 4. Also, the inhibition at 10 µM at CDK19, on CDK8 [3], at NEK1 [4] and at PIKFYVE was more than 90% throughout. For the same compound, the results for the negative logarithm of the IC50 (pIC50) at NEK1 [5] and at CDK8 [1] were less than 5.00 and more than 7.00, respectively.

In the case of `CN(C)[C@H]1CC[C@@]2(C)[C@@H](CC[C@@H]3[C@@H]2CC[C@]2(C)[C@@H](c4ccc5ccncc5c4)CC[C@@H]32)C1` [Compound 23, (3S,8R,9S,10S,13S,14S,17S)-(isoquinolin-7-yl)-N,N,10,13-tetramethylhexadecahydro-1H-cyclopenta[a]phenanthren-3-amine], the pIC50 on CDK8 [1] is more than 7.00.

For the compound `C[C@]12CC[C@H](O)CC1=CC[C@@H]1[C@@H]2CC[C@]2(C)C(c3ccc4cn[nH]c4c3)=CC[C@@H]12` [Compound 7], the pIC50 on CDK8 [1] is less than 5.22.

As to `CN(C)[C@H]1CC[C@@]2(C)[C@@H](CC[C@@H]3[C@@H]2CC[C@]2(C)C(c4ccc5ccncc5c4)=CC[C@@H]32)C1` [Compound 22r, (3S,8R,9S,10S,13S,14S)-17-(isoquinolin-7-yl)-N,N,10,13-tetramethyl-2,3,4,5,6,7,8,9,10,11,12,13,14,15-tetradecahydro-1H-cyclopenta[a]phenanthren-3-amine], on CDK8 [1], the pIC50 was 6.70 to 7.00.

With `CN(C)[C@H]1C[C@@]23CC[C@@]4(O2)C(=CC[C@]2(C)C(c5ccc6ccncc6c5)=CC[C@H]24)C=C3[C@@H](O)[C@@H]1O` [DCA, dehydrocortistatin A, reference compound], the “inhibition of S727 phosphorylation of STAT1” value in test [2] was “dose-dependent inhibition”. The compound also had a negative-log IC50 (pIC50) against CDK8 [6] of 7.77.

As to `C[C@]12CC[C@H]3[C@@H](CC=C4C[C@@H](O)CC[C@@]43C)[C@@H]1CC[C@@H]2c1ccc2[nH]ncc2c1` [Compound 12], at CDK8 [1], the pIC50 was less than 5.22.

As to `C[C@]12CC[C@H](O)CC1=CC[C@@H]1[C@@H]2CC[C@]2(C)C(c3ccc4c(N)n[nH]c4c3)=CC[C@@H]12` [Compound 5], the negative-log IC50 (pIC50) at CDK8 [1] was 5.70 to 6.15.

`C[C@]12CC[C@H]3[C@@H](CC=C4C[C@@H](O)CC[C@@]43C)[C@@H]1CC[C@@H]2c1ccc2cnncc2c1` [Compound 9]: the negative-log IC50 (pIC50) at CDK8 [1] is less than 5.22.

`CN[C@H]1CC[C@@]2(C)[C@@H](CC[C@@H]3[C@@H]2CC[C@]2(C)[C@@H](c4ccc5ccncc5c4)CC[C@@H]32)C1` [Compound 46, (3S,8R,9S,10S,13S,14S,17S)-17-(isoquinolin-7-yl)-N,10,13-trimethylhexadecahydro-1H-cyclopenta[a]phenanthren-3-amine]: the negative logarithm of the IC50 (pIC50) at CDK8 [1] is 5.70 to 6.15.

Consider `CN(C)[C@@H]1CC[C@@]2(C)[C@@H](CC[C@@H]3[C@@H]2CC[C@]2(C)[C@@H](c4ccc5ccncc5c4)CC[C@@H]32)C1` [Compound 25], for which the pIC50 at CDK8 [1] is more than 7.00.
